Results published in US20230365582A1, “NOVEL COMPOUNDS HAVING INHIBITORY ACTIVITY ON PROSTAGLANDIN E2 RECEPTOR AND USES THEREOF” (KANAPH THERAPEUTICS INC., priority 2020, published 2023).

Experiments:
[1] = target: T1, hEP4 (Homo sapiens, UniProt P35408); test: hEP4 cAMP assay; assay type: cell-based; details: HEK293 cells overexpressing hEP4; PGE2 agonist 20 nM; graded per Table 21; read-out: IC50 (nM) EP4 cAMP
T1 construct: expressed in transfected cells; host or cells: HEK293
Method: (§1) HEK293 cells overexpressing hEP4 were cultured in growth medium (GM: MEM (Gibco™, 11095080)/10% HI FBS (Gibco™, 10082147)/1% penicillin/streptomycin). Before the experiment, the growth medium was removed, and starvation medium (HBSS (Gibco™ 14025076)/10% GM) was added. Thereafter, the cells were incubated for 4 hours. HEK293 cells harboring hEP4 were detached from the culture dish with a non-enzymatic cell dissociation buffer (Gibco™, 15040066). The cells were resuspended in assay buffer (AB: HBSS, 0.1% BSA stabilizer, 0.5 mM IBMX, 5 mM HEPES).
(§2) 1,000 cells in 5 μL of AB were seeded per well in a 384 well plate (Corning®, 3570), and stock solutions of test compounds were prepared at a concentration of 1 mM in DMSO and serially diluted in DMSO to the concentration required for the inhibition dose response curve (test concentration range of 10 μM-0.001 nM). PGE2 (Sigma, P0409, stock solution: 100 μM) was used as an agonist at a final concentration of 20 nM corresponding to EC50-80. 2.5 μL of the diluted compound and 2.5 μL of PGE2 (20 nM final concentration) were transferred to the assay plate, and then the plate was incubated at room temperature for 18.5 minutes.
(§3) 5 μL of each donor (Eu-cAMP tracer) and acceptor (ULight-anti-cAMP) was added, and the plate was incubated in the dark for 1 hour at room temperature, and then a Varioskan LUX multimode microplate reader was used to obtain the results (excitation: 334 nm, emission: 615 and 665 nm). The resulting FRET fluorescence value (665 nm/615 nm*10000) was converted and then calculated as a percentage of cAMP compared to the DMSO control value. IC50 values and curves were generated with GraphPad Prism software using log (inhibitor) versus response-variable slope (4 parameters), and the median of multiple experiments was taken as the experiment result.

[2] = target: T2, hEP2 (Homo sapiens, UniProt P43116); test: hEP2 cAMP assay; assay type: cell-based; details: HEK293 cells overexpressing hEP2; PGE2 agonist 400 pM; graded per Table 21; read-out: IC50 (nM) EP2 cAMP
T2 construct: expressed in transfected cells; host or cells: HEK293
T2 sequence (P43116 whole entry): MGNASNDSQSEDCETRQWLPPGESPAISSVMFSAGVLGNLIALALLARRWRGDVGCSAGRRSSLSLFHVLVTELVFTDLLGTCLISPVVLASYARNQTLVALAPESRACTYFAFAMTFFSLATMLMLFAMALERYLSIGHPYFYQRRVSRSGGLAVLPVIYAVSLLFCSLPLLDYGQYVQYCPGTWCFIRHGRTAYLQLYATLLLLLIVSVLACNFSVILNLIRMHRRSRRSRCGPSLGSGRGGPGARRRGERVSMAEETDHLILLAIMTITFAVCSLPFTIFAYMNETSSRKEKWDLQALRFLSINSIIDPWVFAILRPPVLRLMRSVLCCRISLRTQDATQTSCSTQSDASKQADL
Method: as §1, with “overexpressing hEP2” for “overexpressing hEP4”, “(HBSS (Gibco™,” for “(HBSS (Gibco™”, “hours. The” for “hours.”, “harboring hEP2” for “harboring hEP4”
as §2, with “(Corning™,” for “(Corning®,”, “1” for “100”, “400 pM” for “20 nM”, “(400 pM” for “(20 nM”, “12” for “18.5”
as §3, with “relative” for “compared”, “slopes” for “slope”

T1 sequence (P35408 whole entry): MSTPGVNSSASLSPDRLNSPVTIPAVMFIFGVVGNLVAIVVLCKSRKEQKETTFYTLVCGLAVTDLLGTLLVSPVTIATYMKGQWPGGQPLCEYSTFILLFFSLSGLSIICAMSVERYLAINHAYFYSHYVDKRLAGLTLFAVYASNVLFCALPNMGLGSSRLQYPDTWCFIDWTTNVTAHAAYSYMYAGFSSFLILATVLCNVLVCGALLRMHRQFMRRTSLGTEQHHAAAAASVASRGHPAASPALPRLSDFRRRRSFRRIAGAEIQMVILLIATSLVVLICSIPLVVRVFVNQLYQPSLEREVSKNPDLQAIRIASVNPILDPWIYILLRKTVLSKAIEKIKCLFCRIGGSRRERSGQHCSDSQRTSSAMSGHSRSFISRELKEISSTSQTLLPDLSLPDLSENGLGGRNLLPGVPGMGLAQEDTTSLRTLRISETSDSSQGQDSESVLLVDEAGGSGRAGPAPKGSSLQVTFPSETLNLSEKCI

Row | IC50 [1] [nM] | IC50 [2] [nM] | Structure (SMILES)
1 | > 10000 | > 10000 | Cc1sc(C)c(C(=O)NC2CC3(C2)CC(C(=O)O)C3)c1Cc1ccccc1-c1ccccc1 (stereo not shown) [Example 4, 6-(4-([1,1′-biphenyl]-2-ylmethyl)-2,5-dimethylthiophene-3-carboxamido)spiro[3.3]heptane-2-carboxylic acid]
2 | > 10000 | 500 to 5000 | O=C(N[C@H]1C[C@H](C(=O)O)C1)c1csc2ccn(Cc3ccc(-c4ccccc4)cc3)c12 [Example 83, (1R,3R)-3-(4-([1,1′-biphenyl]-4-ylmethyl)-4H-thieno[3,2-b]pyrrole-3-carboxamido)cyclobutane-1-carboxylic acid]
3 | < 500 | 5000 to 10000 | O=C(NC1CC2(C1)CC(C(=O)O)C2)c1csc2ccn(Cc3ccc(-c4ccncc4)cc3)c12 (stereo not shown) [Example 106, 6-(4-(4-(pyridin-4-yl)benzyl)-4H-thieno[3,2-b]pyrrole-3-carboxamido)spiro[3.3]heptane-2-carboxylic acid]
4 | < 500 | > 10000 | Cc1cnn(-c2ccc(Cn3ccc4scc(C(=O)NC5CC6(C5)CC(C(=O)O)C6)c43)cc2)c1 (stereo not shown) [Example 111, 6-(4-(4-(4-methyl-1H-pyrazol-1-yl)benzyl)-4H-thieno[3,2-b]pyrrole-3-carboxamido)spiro[3.3]heptane-2-carboxylic acid]
5 | > 10000 | > 10000 | Cc1ccc(Cc2c(C)sc(C)c2C(=O)NC2CC3(C2)CC(C(=O)O)C3)cc1 (stereo not shown) [Example 2, 6-(2,5-dimethyl-4-(4-methylbenzyl)thiophene-3-carboxamido)spiro[3.3]heptane-2-carboxylic acid]
6 | 500 to 5000 | > 10000 | Cc1sc(C)c(C(=O)NC2CC3(C2)CC(C(=O)O)C3)c1Cc1ccc(-c2ccccc2)c(N)c1 (stereo not shown) [Example 8, 6-(4-((2-amino-[1,1′-biphenyl]-4-yl)methyl)-2,5-dimethylthiophene-3-carboxamido)spiro [3.3]heptane-2-carboxylic acid]
7 | 500 to 5000 | > 10000 | Cc1ccccc1-c1ccc(Cc2c(C)sc(C)c2C(=O)NC2CC3(C2)CC(C(=O)O)C3)cc1 (stereo not shown) [Example 38, 6-(2,5-dimethyl-4-((2′-methyl-[1,1′-biphenyl]-4-yl)methyl)thiophene-3-carboxamido)spiro[3.3]heptane-2-carboxylic acid]
8 | < 500 | 500 to 5000 | COc1cc(-c2ccc(Cc3c(C)sc(C)c3C(=O)NC3CC4(C3)CC(C(=O)O)C4)cc2)cc(C(F)(F)F)c1 (stereo not shown) [Example 51, 6-(4-((3′-methoxy-5′-(trifluoromethyl)-[1,1′-biphenyl]-4-yl)methyl)-2,5-dimethylthiophene-3-carboxamido)spiro[3.3]heptane-2-carboxylic acid]
9 | < 500 | 500 to 5000 | COc1cc(F)cc(-c2ccc(Cc3c(C)sc(C)c3C(=O)NC3CC4(C3)CC(C(=O)O)C4)cc2)c1 (stereo not shown) [Example 34, 6-(4-((3′-fluoro-5′-methoxy-[1,1′-biphenyl]-4-yl)methyl)-2,5-dimethylthiophene-3-carboxamido)spiro[3.3]heptane-2-carboxylic acid]
10 | < 500 | 500 to 5000 | O=C(NC1CC2(C1)CC(C(=O)O)C2)c1csc2ccn(Cc3cnc(-c4ccccc4)nc3)c12 (stereo not shown) [Example 94, 6-(4-((2-phenylpyrimidin-5-yl)methyl)-4H-thieno[3,2-b]pyrrole-3-carboxamido)spiro[3.3]heptane-2-carboxylic acid]

Row | Structure (SMILES) | IC50 [1] [nM] | IC50 [2] [nM]
11 | COc1cc(CNC(=O)OC(C)(C)C)cc(-c2ccc(Cc3c(C)sc(C)c3C(=O)NC3CC4(C3)CC(C(=O)O)C4)cc2)c1 (stereo not shown) [Example 59, 6-(4-((3′-(((tert-butoxycarbonyl)amino)methyl)-5′-methoxy-[1,1′-biphenyl]-4-yl)methyl)-2,5-dimethylthiophene-3-carboxamido)spiro[3.3]heptane-2-carboxylic acid] | 500 to 5000 | > 10000
